In data set [1] the test system is Human immunodeficiency virus 1. Nature of the data set: Antiviral activity against Human immunodeficiency virus 1 NL4-3 infected human HeLa cells assessed as decrease in P24 expression at 100 uM after 72 hr by single cycle replication assay. The format is functional. The conditions noted are these: Human immunodeficiency virus 1, NL4-3, HeLa.
Data set [2] is described as follows: Cytotoxicity against Homo sapiens (human) HeLa cells infected with HIV-1 NL4-3 assessed as cell viability at 100 uM by XTT assay. The format is cell-based. The conditions noted are these: read-out: Activity.

Broadly, the inhibition is the relative decrease from the control value, in per cent. Consider `Cc1cn([C@H]2C[C@H](N=[N+]=[N-])[C@@H](CO)O2)c(=O)[nH]c1=O` [ZIDOVUDINE], for which the inhibition at 100 µM in data set [1] came to 100%. The viability at 100 µM in data set [2] was found to be 100%. Turning to `O=c1c(-c2nnc(-c3ccc(F)cc3)s2)cnc2ccccn12`, the inhibition at 100 µM in data set [1] is 48%. Further, in data set [2], the viability at 100 µM stood at 92%. With `O=c1c(-c2nnc(-c3ccc(F)cc3)o2)cnc2ccccn12`, the inhibition at 100 µM in data set [1] came out at 18%. Also, the viability at 100 µM in data set [2] was found to be 100%. Consider `Cc1ccc(-c2nnc(-c3cnc4ccccn4c3=O)s2)cc1`, for which the inhibition at 100 µM in data set [1] is 51%. The viability at 100 µM in data set [2] was found to be 93%. Turning to `O=c1c(-c2nnc(-c3ccccc3)o2)cnc2ccccn12`, in data set [2], the viability at 100 µM amounted to 98%. As for `O=c1c(-c2nnc(S)o2)cnc2ccccn12`, the inhibition at 100 µM in data set [1] amounted to 11%. In addition, the viability at 100 µM in data set [2] was 100%. Taken in the same sequence, the figures for `O=c1c(-c2nnc(-c3ccc(Cl)cc3)o2)cnc2ccccn12` were 26% and 94%. Take `Cc1ccc(-c2nnc(-c3cnc4ccccn4c3=O)o2)cc1`: the inhibition at 100 µM in data set [1] is 29%. Besides, the viability at 100 µM in data set [2] turned out to be 94%. For `COc1ccc(-c2nnc(-c3cnc4ccccn4c3=O)s2)cc1`, in that order: 28% and 97%.

With `COc1ccc(-c2nnc(-c3cnc4ccccn4c3=O)o2)cc1`, in data set [2], the viability at 100 µM was 100%. `O=c1c(-c2nnc(-c3ccc(Cl)cc3)s2)cnc2ccccn12`: in data set [1], the inhibition at 100 µM amounted to 39%. Further, in data set [2], the viability at 100 µM was found to be 95%. `O=c1c(-c2nnc(-c3ccccc3)s2)cnc2ccccn12`: the inhibition at 100 µM in data set [1] was found to be 33%. Moreover, the viability at 100 µM in data set [2] turned out to be 100%.

In the case of `Nc1nnc(-c2cnc3ccccn3c2=O)o1`, the viability at 100 µM in data set [2] came out at 96%.
